Measurements: ChEMBL document CHEMBL1122427, “Structure-activity studies of highly potent cyclic [Cys4,Cys10]Melanotropin analogues” (J Med Chem, 1983)

Tests used:
frog = test: Evaluated for relative potency in stimulating melanosome dispersion against Frog skin melanophores (Rana pipiens); format: functional
lizard = test: Evaluated for relative potency in stimulating melanosome dispersion against Lizard skin (Anolis carolinensis).; format: functional

Structure (SMILES) | Relative potency (frog) | Relative potency (lizard)
CSCC[C@H](NC(C)=O)C(=O)N[C@@H](CCC(=O)O)C(=O)N[C@@H](Cc1c[nH]cn1)C(=O)N[C@@H](Cc1ccccc1)C(=O)N[C@@H](CCCN=C(N)N)C(=O)N[C@@H](Cc1c[nH]c2ccccc12)C(=O)NCC(N)=O | 0.0006 | 0.02
CC(=O)N[C@@H](CO)C(=O)N[C@@H](Cc1ccc(O)cc1)C(=O)N[C@@H](CO)C(=O)N[C@@H]1CSSC[C@H](C(=O)N[C@H](CCCCN)C(=O)N2CCC[C@@H]2C(=O)N[C@@H](C(N)=O)C(C)C)NC(=O)[C@@H](Cc2c[nH]c3ccccc23)NC(=O)[C@H](CCCN=C(N)N)NC(=O)[C@@H](Cc2ccccc2)NC(=O)[C@H](Cc2c[nH]cn2)NC(=O)[C@@H](CCC(=O)O)NC1=O | 10000 | 32
CC(=O)N[C@@H]1CSSC[C@H](C(N)=O)NC(=O)[C@@H](Cc2c[nH]c3ccccc23)NC(=O)[C@H](CCCN=C(N)N)NC(=O)[C@@H](Cc2ccccc2)NC(=O)[C@H](Cc2c[nH]cn2)NC(=O)[C@@H](CCC(=O)O)NC1=O | 0.07 | 0.003
CC(=O)N[C@@H]1CSSC[C@H](C(=O)N[C@H](CCCCN)C(=O)N2CCC[C@@H]2C(=O)N[C@@H](C(N)=O)C(C)C)NC(=O)[C@@H](Cc2c[nH]c3ccccc23)NC(=O)[C@H](CCCN=C(N)N)NC(=O)[C@@H](Cc2ccccc2)NC(=O)[C@H](Cc2c[nH]cn2)NC(=O)[C@@H](CCC(=O)O)NC1=O | 10000 | 1.6
